Key:
[1] = Thickening behavior study: viscosity of surfactant systems; format: physicochemical; conditions: for Viscosity (change after each sequential addition) / Change in viscosity (symbol under Viscosity) / Viscosity (LV3/12 rpm): pH 5.5; for Change in viscosity (symbol under Viscosity) / Viscosity (LV3/12 rpm): 14% AM sodium coco sulfate/decyl glucoside system, additive(s) at 1% each; for Viscosity: 12% AM, NaCl 1, pH 5.5, additive(s) at 1% w/w each
Experimental: Four formulations are shown in the four rightmost columns of Table 14 with ingredients indicated as a percentage by weight. The formulations differ in percentages of sodium chloride, 3-(heptyloxy)propane-1,2-diol, and 3-[(n-octyl)oxy]-1,2-propanediol.
A thickening behavior study was also performed in another basic surfactant system: Anionic/Non Ionic (APG—alkyl polyglucoside). Each column corresponds to a particular formulation with ingredients listed as a percentage by weight. The remainder was water, represented by Qs. % AM indicates % of active matter (e.g. % of dry surfactant).
(§1) A further thickening behavior study was performed in a different basic surfactant system: anionic/amphoteric (CAPB—Cocamidopropyl betaine). Each column corresponds to a particular formulation with ingredients listed as a percentage by weight. The remainder was water, represented by Qs. % AM indicates % of active matter (e.g. % of dry surfactant).
A further thickening behavior study was performed to compare sulfated surfactants and sulfate free surfactants. Each column corresponds to a particular formulation with ingredients listed as a percentage by weight. The remainder was water, represented by Qs. % AM indicates % of active matter (e.g. % of dry surfactant). Sodium chloride, 3-(heptyloxy)propane-1,2-diol, and 3-[(n-octyl)oxy]-1,2-propanediol were added sequentially with the change in viscosity measured after each addition and noted in Table 17 below.
as §1, with “to determine viscosity differences with and without salt (e.g. sodium chloride).” for “in a different basic surfactant system: anionic/amphoteric (CAPB—Cocamidopropyl betaine).”

[2] = Solubility in aqueous systems; format: physicochemical; conditions: compared to 3-(heptyloxy)propane-1,2-diol
[3] = tested on: Staphylococcus epidermidis - code souchier C′; assay: Roll-on deodorant challenge test (ISO 11930, odor-causing bacteria); format: cell-based; conditions: addition of 1% in natural roll-on deodorant
Experimental: The roll-on deodorant challenge tests shown below were conducted in accordance with ISO 11930 except that formulations were tested with bacteria Corynebacterium xerosis—code souchier M′ and Staphylococcus epidermidis—code souchier C′, which are two of the major odor-causing bacteria found in skin flora. The roll-on deodorant formulations used in the challenge tests are described in Tables 3 and 4 above. A non-preserved formulation without 3-(heptyloxy)propane-1,2-diol was used as a negative control, and the high concentration formulation with 1% 3-(heptyloxy)propane-1,2-diol by weight was tested.

microbial growth = assay: BIOLUMIX assay to screen for preventing microbial growth; format: cell-based; conditions: 1% by weight in cleansing wipe, emulsion wipe, cream, shampoo, roll-on deodorant
Description: Efficacy of the compositions in preventing microbial growth were screened with a BIOLUMIX assay. The BIOLUMIX assay produces a color change when carbon dioxide, indicative of microbial contamination, is detected in a sample. Non-preserved formulations without 3-(heptyloxy)propane-1,2-diol were used as negative controls, and formulations were used at particular percentages of 3-(heptyloxy)propane-1,2-diol by weight. Passing criteria is meeting criteria A in Table 5.

[4] = Skin irritancy and skin sensitization
[5] = Sulfate free: Na Cocoyl Glutamate 8/Decyl Glucoside 4, 12% AM, added sequentially NaCl 2, 3-(heptyloxy)propane-1,2-diol 1, 3-[(n-octyl)oxy]-1,2-propanediol 1
[6] = Sulfate free: Na Cocoyl Glycinate 8/Decyl Glucoside 4, 12% AM, added sequentially NaCl 2, 3-(heptyloxy)propane-1,2-diol 1, 3-[(n-octyl)oxy]-1,2-propanediol 1
[7] = Sulfate free: Na Lauroyl Sarcosinate 8/Decyl Glucoside 4, 12% AM, added sequentially NaCl 2, 3-(heptyloxy)propane-1,2-diol 1, 3-[(n-octyl)oxy]-1,2-propanediol 1
[8] = Sulfate free: Na Lauryl Glucose Carboxylate 8/Decyl Glucoside 4, 12% AM, added sequentially NaCl 2, 3-(heptyloxy)propane-1,2-diol 1, 3-[(n-octyl)oxy]-1,2-propanediol 1
[9] = Sulfate free: Na Lauryl Sulfoacetate 8/Decyl Glucoside 4, 12% AM, added sequentially NaCl 2, 3-(heptyloxy)propane-1,2-diol 1, 3-[(n-octyl)oxy]-1,2-propanediol 1
[10] = Sulfated: Ammonium Lauryl Sulfate 8/Decyl Glucoside 4, 12% AM, added sequentially NaCl 1, 3-(heptyloxy)propane-1,2-diol 1, 3-[(n-octyl)oxy]-1,2-propanediol 1
[11] = Sulfated: Na Coco Sulfate 8/Decyl Glucoside 4, 12% AM, added sequentially NaCl 1, 3-(heptyloxy)propane-1,2-diol 1, 3-[(n-octyl)oxy]-1,2-propanediol 1
[12] = Sulfated: Na Lauryl Ether Sulfate 8/Decyl Glucoside 4, 12% AM, added sequentially NaCl 1, 3-(heptyloxy)propane-1,2-diol 1, 3-[(n-octyl)oxy]-1,2-propanediol 1
[13] = Sulfated: Na Lauryl Sulfate 8/Decyl Glucoside 4, 12% AM, added sequentially NaCl 1, 3-(heptyloxy)propane-1,2-diol 1, 3-[(n-octyl)oxy]-1,2-propanediol 1
[14] = Ammonium Lauryl Sulfate (ALS) 8/APG 4 system
[15] = Ammonium Lauryl Sulfate (ALS) 10/CAPB 2 system
[16] = Na Cocoyl Sulfate (SCS) 8/APG 4 system
[17] = Na Lauryl Ether Sulfate (SLES) 8/APG 4 system
[18] = Na Lauryl Ether Sulfate (SLES) 10/CAPB 2 system

Viscosity (change after each sequential addition) [1, 5]	Viscosity (change after each sequential addition) [1, 6]	Viscosity (change after each sequential addition) [1, 7]	Viscosity (change after each sequential addition) [1, 8]	Viscosity (change after each sequential addition) [1, 9]	Viscosity (change after each sequential addition) [1, 10]	Viscosity (change after each sequential addition) [1, 11]	Viscosity (change after each sequential addition) [1, 12]	Viscosity (change after each sequential addition) [1, 13]	Viscosity [1, 14]	Viscosity [1, 15]	Viscosity [1, 16]	Viscosity [1, 17]	Viscosity [1, 18]	Compound	Change in viscosity (symbol under Viscosity) ([1]; With 1% NaCl)	Viscosity (LV3/12 rpm) ([1]; With 1% NaCl)	other results
–	–	–	–	–	–	–	–	–	–	–	–	–	–	[Cl-].[Na+] [Sodium Chloride]	↑	280 cps	–
≈	≈	≈	≈	≈	↑++	↑++	↑++	↑++	550 cps	3250 cps	370 cps	50 cps	700 cps	CCCCCCCCOCC(O)CO (stereo not drawn) [3-[(n-octyl)oxy]-1,2-propanediol]	–	–	solubility in aqueous systems [2]: lower solubility in aqueous systems
≈	≈	≈	≈	≈	↑+	↑+	↑+	↑	260 cps	2500 cps	130 cps	50 cps	200 cps	CCCCCCCOCC(O)CO (stereo not drawn) [3-(heptyloxy)propane-1,2-diol]	↑+	1600 cps	speed of logarithmic reduction of bacteria [3]: increases logarithmic reduction of bacteria such as Staphylococcus faster; microbial growth in products (microbial growth): successfully blocks microbial growth; skin irritancy [4]: reduced/no skin irritancy; skin sensitization [4]: non-skin sensitizer; Change in viscosity (symbol under Viscosity) ([1]; Without Salt): ≈; Viscosity (LV3/12 rpm) ([1]; Without Salt, base without additives 70 cps): 80 cps

Compound	Viscosity (change after each sequential addition) [1, 5]	Viscosity (change after each sequential addition) [1, 6]	Viscosity (change after each sequential addition) [1, 7]	Viscosity (change after each sequential addition) [1, 8]	Viscosity (change after each sequential addition) [1, 9]	Viscosity (change after each sequential addition) [1, 10]	Viscosity (change after each sequential addition) [1, 11]	Viscosity (change after each sequential addition) [1, 12]	Viscosity (change after each sequential addition) [1, 13]	Viscosity [1, 14]	Viscosity [1, 15]	Viscosity [1, 16]	Viscosity [1, 17]	Viscosity [1, 18]	Change in viscosity (symbol under Viscosity) ([1]; With 1% NaCl)	Viscosity (LV3/12 rpm) ([1]; With 1% NaCl)	other results
[Cl-].[Na+] [NaCl]	≈	↑	≈	≈	≈	↑	↑	↑	↑	–	–	–	–	–	–	–	–
